{"source": "paper PMC4871512", "about": "“Drug-Based Lead Discovery: The Novel Ablative Antiretroviral Profile of Deferiprone in HIV-1-Infected Cells and in HIV-Infected Treatment-Naive Subjects of a Double-Blind, Placebo-Controlled, Randomized Exploratory Trial” (PLoS ONE, 2016)", "key": {"HIV-1 DNA": {"system": "HIV-1 DNA", "assay": "HIV-1 DNA (Roche Amplicor HIV-1 DNA Test) in isolate-infected primary cell cultures", "type": "cell-based", "conditions": "200 μM deferiprone", "experimental": "Cell-free supernatants were used for p24 and HIV-1 RNA measurements. p24 core antigen in the supernatant was quantified by ELISA (Retrotek HIV-1 p24®; ZeptoMetrix Corp.; Buffalo, NY). HIV-1 RNA copy number in the supernatant of PBMC cultures and in plasma of trial subjects enrolled in the exploratory deferiprone trial was determined with a PCR-based and FDA-approved assay (Amplicor HIV-1 Monitor®; Roche Diagnostics Corp.; Indianapolis, IN). For clinical samples, the assay was used per the Standard Specimen Processing Procedure (sensitivity limit 400 copies/ml); for cell culture samples, the assay was used in both the Standard Specimen Processing and the UltraSensitive Specimen Processing Procedure (sensitivity limit 50 copies/ml). If not specified further, the term “log10” designates the amount of HIV-1 RNA in the dimensions [log10 / ml]. […] Results are shown per the assay’s optical readings of a chromogenic reaction that relates absorbance at 450 nm to the HIV-1 DNA copy number and is calibrated by assay-internal copy controls (A450 < 0.350, HIV-1 DNA absent; A450 ≥ 3.0, HIV-1 DNA present in excess of 20 copies; A450 between 0.350 and 3.0, HIV-1 DNA copy number per copy controls). Apoptotic DNA fragmentation was quantified flow-cytometrically, using a terminal deoxynucleotide transferase dUTP nick end-labeling (TUNEL) assay (APO-BRDU™; Phoenix Flow Systems; San Diego, CA). […]"}, "[1]": {"system": "HIV-infected peripheral blood mononuclear cells", "assay": "Apoptotic DNA fragmentation by TUNEL in single-donor non-replenished PBMC cultures", "type": "cell-based, human", "conditions": "200 μM deferiprone", "experimental": "Fig 2 Effect of deferiprone in HIV-infected primary cells: Apoptotic DNA fragmentation, deoxyhypusyl-eIF5A accumulation, and DOHH activity. Apoptotic DNA fragmentation (Panel A) was detected by terminal deoxynucleotide transferase dUTP nick end labeling (TUNEL) of single-donor peripheral blood mononuclear cells, maintained in short-term non-replenished cultures as described. Cells were left uninfected and/or untreated; or infected immediately after plating with clinical HIV-1 isolate and 12 hours after infection, treated with 200 μM deferiprone. […] The dose-effect curve for inhibition of cellular DOHH by increasing deferiprone concentrations in short-term non-replenished single-donor cultures (Panel C) was calculated from the accumulation of its ^3H-labeled substrate and the decrease of its ^3H-labeled product; error bars are at the size of the graph symbols and not shown. […]\nCell-free supernatants were used for p24 and HIV-1 RNA measurements. p24 core antigen in the supernatant was quantified by ELISA (Retrotek HIV-1 p24®; ZeptoMetrix Corp.; Buffalo, NY). HIV-1 RNA copy number in the supernatant of PBMC cultures and in plasma of trial subjects enrolled in the exploratory deferiprone trial was determined with a PCR-based and FDA-approved assay (Amplicor HIV-1 Monitor®; Roche Diagnostics Corp.; Indianapolis, IN). […]"}, "[2]": {"biological_target": "T1, deoxyhypusyl hydroxylase (DOHH) (Homo sapiens, UniProt Q9BU89)", "T1 construct": "endogenous in cells; host or cells: single-donor primary peripheral blood mononuclear cells (PBMCs), uninfected or infected with a clinical HIV-1 isolate", "T1 sequence (Q9BU89 1-302)": "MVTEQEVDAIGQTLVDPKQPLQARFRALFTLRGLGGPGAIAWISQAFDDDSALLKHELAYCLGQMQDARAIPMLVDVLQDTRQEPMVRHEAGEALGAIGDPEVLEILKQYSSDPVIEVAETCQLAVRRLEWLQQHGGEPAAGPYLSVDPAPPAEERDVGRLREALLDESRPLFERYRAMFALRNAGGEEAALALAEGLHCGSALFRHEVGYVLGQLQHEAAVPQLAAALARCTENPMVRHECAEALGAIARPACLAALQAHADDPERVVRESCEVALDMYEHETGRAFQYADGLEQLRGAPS", "assay": "Cellular DOHH activity by metabolic labeling of deoxyhypusyl-eIF5A and hypusyl-eIF5A with (1,8-3H)spermidine", "type": "cell-based", "experimental": "Fig 2 Effect of deferiprone in HIV-infected primary cells: Apoptotic DNA fragmentation, deoxyhypusyl-eIF5A accumulation, and DOHH activity. Apoptotic DNA fragmentation (Panel A) was detected by terminal deoxynucleotide transferase dUTP nick end labeling (TUNEL) of single-donor peripheral blood mononuclear cells, maintained in short-term non-replenished cultures as described. Cells were left uninfected and/or untreated; or infected immediately after plating with clinical HIV-1 isolate and 12 hours after infection, treated with 200 μM deferiprone. […] The dose-effect curve for inhibition of cellular DOHH by increasing deferiprone concentrations in short-term non-replenished single-donor cultures (Panel C) was calculated from the accumulation of its ^3H-labeled substrate and the decrease of its ^3H-labeled product; error bars are at the size of the graph symbols and not shown. Black, HIV-infected untreated cells; green, uninfected untreated cells; blue, uninfected deferiprone-treated cells; red, HIV-infected deferiprone-treated cells; large triangles, HIV-infected cells (red) or uninfected cells (blue) treated with 200 μM deferiprone.\nMetabolic labeling with (1,8-^3H)spermidine at 5 μCi/ml for 18 hours was performed as described in primary cell cultures of the same volume, viability by dye exclusion, cell number, and donor origin. Following acid hydrolysis of each sample for release of radiolabeled hypusine and deoxyhypusine, separation by ion-exchange chromatography, and liquid scintillation measurement of incorporated label, 18 fractions were collected and the counts in the eluted fractions were proportionally adjusted to a total of 10,000 cpm per sample. This normalization adjusts for variances in the radioactivity of different samples and allows direct comparison of their hypusine-deoxyhypusine elution profiles. Only the hypusine- / deoxyhypusine-containing fractions (6 through 14) were used for analysis."}, "[3]": {"conditions": "human, in vivo; cited from earlier work"}}, "data": [{"smiles": "Cc1c(O)c(=O)ccn1C", "note": "[deferiprone, 3-hydroxy-1,2-dimethylpyridin-4-one]", "values": [{"measurement": "decline of HIV-1 DNA", "setting": "HIV-1 DNA", "result": "reached the lower limit of detectability"}, {"measurement": "final A450 readings of the HIV-1 DNA test", "setting": "HIV-1 DNA; 10 days off-drug", "result": "negative for the continued presence of HIV-1 DNA"}, {"measurement": "DNA fragmentation in infected treated relative to infected untreated cultures", "setting": "[1]; at 120 hours", "result": "twice"}, {"measurement": "DNA fragmentation in infected treated relative to infected untreated cultures", "setting": "[1]; at 144 hours, P = 0.001", "result": "three times as high"}, {"measurement": "newly synthesized deoxyhypusyl-eIF5A accumulated in HIV-infected treated cells, higher than in uninfected treated cultures", "setting": "[2]; 200 μM deferiprone", "result": "~40", "unit": "%"}, {"measurement": "DOHH activity in the primary cells", "setting": "[2]; at ≤100 μM deferiprone, infected and uninfected cultures", "result": "≥ 90", "unit": "%"}, {"measurement": "cellular DOHH activity", "setting": "[2]; at ≥200 μM deferiprone, infected and uninfected cultures", "result": "≤ 8", "unit": "%"}, {"measurement": "Abdominal pain/discomfort, patients affected", "setting": "[3]", "result": 10.4, "unit": "%"}, {"measurement": "Alanine aminotransferase increased, patients affected", "setting": "[3]", "result": 7.5, "unit": "%"}, {"measurement": "Arthralgia, patients affected", "setting": "[3]", "result": 9.8, "unit": "%"}, {"measurement": "Headache, patients affected", "setting": "[3]", "result": 2.5, "unit": "%"}, {"measurement": "Nausea, patients affected", "setting": "[3]", "result": 12.6, "unit": "%"}, {"measurement": "Neutropenia (neutrophils < 1.5 x 10^9/L and > 0.5 x 10^9/L), patients affected", "setting": "[3]", "result": 6.2, "unit": "%"}, {"measurement": "Vomiting, patients affected", "setting": "[3]", "result": 9.8, "unit": "%"}, {"measurement": "agranulocytosis (absolute neutrophil count less than 0.5 × 10^9/L), patients affected", "setting": "[3]", "result": 1.7, "unit": "%"}]}]}
